According to US20260174797A1, “MAGNESIUM AND TRACE ELEMENT OXIDE PREMIX FOR ANIMAL NUTRITIONAL SUPPLEMENTATION, AND MANUFACTURING METHOD” (TIMAB MAGNESIUM, priority 2022, published 2026):
Marks after values point to notes of the source that are not given here.

What was measured:
[1] = In vivo piglet test: growth performance (weight gain, feed consumption) D0 to D42 post-weaning; design: species or system piglets (Danbred×Duroc); settings: for Daily weight gain: Overall period D0 to D42
Procedure: The effect of the premix of the invention on the performance and health of piglets in the post-weaning pre-starter stage (0-14 days post-weaning) was evaluated and compared to a standard oxide.
The use of the product of the invention ZnO—MgO was compared with standard zinc oxide at nutritional dose as well as at pharmacological dose in the contents indicated in Table 3.
Piglet weight was measured from D0 to D42 post-weaning in order to record daily weight gain and total weight at the end of the test. Feed consumption of each animal was also recorded each day of the test and recorded as an average to assess the feed conversion ratio (FCR). The FCR corresponds to the conversion index CI. It is equal to the average daily consumption reported to the average daily weight gain. The mean values+/−the standard deviation are presented per treatment.

[2] = in vivo
Excerpt: Each piglet is tagged, weighed and allocated in groups of 8 piglets per pen.
Analyses of the faeces after 14 days of use of the different treatments allowed to assess the amount of zinc not used by the animal and thus released into the soil, contributing to pollution.

Caco2 cells = settings: Caco-2
[3] = Control Negative: ZnO 150 ppm additive (120 ppm zinc)
[4] = Control Positive: ZnO 3261 ppm additive (2620 ppm zinc)
[5] = Pre-starter phase D0 to D14, Control Negative: ZnO 150 ppm additive (120 ppm zinc)
[6] = Pre-starter phase D0 to D14, Control Positive: ZnO 3261 ppm additive (2620 ppm zinc)

| Molecule | Live weight Day 0 [1, 3] [kg] | Live weight Day 14 [1, 3] | Live weight Day 42 [1, 3] | Live weight Day 0 [1, 4] [kg] | Live weight Day 14 [1, 4] | Live weight Day 42 [1, 4] | Daily weight gain [1, 3] | Daily weight gain [1, 4] | Average daily feed consumption [1, 5] [kg/day] | Average daily weight gain [1, 5] | Feed conversion ratio [1, 5] | Average daily feed consumption [1, 6] [kg/day] | Average daily weight gain [1, 6] | Feed conversion ratio [1, 6] | Average daily weight gain ([1]; Starter phase D15 to D42, Control Negative: ZnO 150 ppm additive (120 ppm zinc)) | Average daily weight gain ([1]; Starter phase D15 to D42, Control Positive: ZnO 3261 ppm additive (2620 ppm zinc)) | zinc content measured in the feces [2] [ppm] | Total Zn absorbed on cell (Caco2 cells) [mg/L] |
| --- | --- | --- | --- | --- | --- | --- | --- | --- | --- | --- | --- | --- | --- | --- | --- | --- | --- | --- |
| [O]=[Zn] [Control, ZnO] | 6.75 | 9.61^b kg | 26.15^ab kg | 6.74 | 10.01^ab kg | 25.33^b kg | 0.463^ab kg/day | 0.444^b kg/day | 0.380 | 0.205^b kg/day | 1.863^a kg/kg | 0.395 | 0.233^ab kg/day | 1.705^b kg/kg | 0.611^ab kg/day | 0.571^b kg/day | 925 | – |
| ZnO—MgO [Premix of the invention MgO—ZnO] | – | – | – | – | – | – | – | – | – | – | – | – | – | – | – | – | – | 1.89 |
